{"source": "patent US20240287614A1", "about": "“RECIPROCAL MICRORNA-MRNA PAIRINGS AS BIOMARKERS AND THERAPEUTIC TARGETS IN CANCER” (UNIVERSITY OF MARYLAND, EASTERN SHORE, priority 2023, published 2024)", "key": {"mTOR and pmTOR [1]": {"tested_on": "mTOR and pmTOR", "test": "Immunofluorescence of mTOR and pmTOR in prostate cancer cell lines transfected with NS or miR-99b-5p mimic", "format": "cell-based, human", "conditions": "vs NS", "from_the_text": "(§1) The human cell lines used in the study included: 22Rv1, LNCaP, PC-3, RC77 T/E and MDA PCa 2b (prostate cancer cell lines), MDA MB 231 and MCF-7 (breast cancer cell lines), HT-29 and SW620 (colon cancer cell lines), A549 and H1299 (lung cancer cell lines). RWPE-1, HMEC, FHC, and BEAS-2B were used as normal control cell lines for prostate, breast, colon, and lung, respectively. Note that 22Rv1 is a castration-resistant […] prostate cancer cell line, while LNCaP and PC-3 were derived from lymph node and bone metastasis of […] prostate cancer patients, respectively. RC77 T/E was derived from a primary prostate cancer patient, and MDA PCa 2b was derived from bone metastasis of an prostate cancer patient. The cell lines described were used as in vitro cell models to evaluate the functional roles of miR-99b-5p/MTOR pairing in the […] prostate cancer, African American prostate cancer and solid tumors in general. The cells were grown in specific cell culture media described as follows: 22Rv1, LNCaP, MCF-7 and H1299 were cultured in RPMI-1640 with 10% fetal bovine serum (FBS), PC-3, A549 and FHC were cultured in DMEM with 10% FBS, RC77 T/E was cultured in Keratinocyte SFM with human recombinant epidermal growth factor (EGF) and bovine pituitary extract (BPE), MDA PCa 2b were cultured in BRFF-HPC1 with 20% FBS, HT-29 was cultured in McCory's with 10% FBS, SW620 and MDA MB 231 were cultured in L-15 with 10% FBS, HMEC was cultured in mammary epithelial cell basal medium with supplements, and BEAS-2B was cultured in BEBM base medium with BEBM supplement kit. Cells were maintained at 37° C. in a 5% CO2 incubator.\n(§2) The 22Rv1, LNCaP, PC-3, MDA PCa 2b, MCF7, H1299, A549, HT-29, SW620, MDA MB-231, HMEC and BEAS-2B cells were seeded at a density of 3×10^5 cells/well in 6-well plates. RC77 T/E cells were seeded at a density of 5×10^5 cells/well in 6-well plates. The cells were grown for 24 h and then transfected with nonsense/scrambled RNA (NS) and miR-99b-5p mimic (Ambion) using DharmaFECT4 transfection reagent (Dharmacon). After 24 h, fresh media were applied to replace the transfection reagent-containing media, then the cells were incubated for an additional 24 h.\nIn this process, 4×10^4 cells were seeded on cover slip and allowed to adhere for 24 h in 5% CO2 incubator at 37° C. All the cells were subjected to immunofluorescence assays 48 h following transfection. Briefly, cells were washed with 1×PBS, fixed in 4% paraformaldehyde, and permeabilized with 0.1% Triton X-100. Cells were then blocked for 1 h with 2% BSA in 1×PBS. […] All labeled and/or prepared cells mounted on glass slides and were visualized by fluorescence microscopy (Olympus). […]"}, "AR": {"tested_on": "AR", "test": "Western blot of AR in total, cytoplasmic and nuclear protein fractions", "format": "cell-based, human", "from_the_text": "as §1, §2\n(§3) The total proteins were extracted using M-PER extraction reagent with protease and phosphatase inhibitor cocktail (Thermo Fisher Scientific) according to manufacturer's protocol. […] Equal amounts of proteins were used based on the quantification using BCA assay kit (Thermo Fisher Scientific), and the samples were separated by electrophoresis using NuPAGE 4-12% or 8% Bis-Tris gels (Invitrogen). […] The results were analyzed with SuperSignal ECL substrates (Thermo Fisher Scientific) and a ChemiDoc XRS system (Bio-Rad). […]"}, "[2]": {"tested_on": "HT-29, SW620, MDA MB 231, MCF7, A549, and H1299", "test": "Caspase 3/7 activity-based apoptosis assay, colon, breast and lung cancer cell lines", "parameters": "species or system human", "protocol": "HT-29, SW620, MDA MB 231, MCF7, A549, and H1299 were seeded at a density of 3×10^4 cells/well in 96-well plates. The cells were grown overnight and then followed by transfections. After 24 h, fresh media were applied to replace the transfection reagent-containing media with […] of docetaxel or vehicle, then the cells were incubated for an additional 24 h. The Apo-ONE Caspase-3/7 Assay Kit (Promega Corporation) was used to measure apoptosis according to the protocol described by the manufacturer. Then, 100 μL of homogeneous Caspase-3/7 reagent was added to each well and the plate incubated at room temperature for 30 min to 2 h. Fluorescence was detected for measuring (at wavelengths of 499/521 nm excitation/emission) the apoptosis state (Caspase 3/7 activity) using Biotek Synergy HT Microplate Reader (BioTek)."}, "mTOR and pmTOR [3]": {"tested_on": "mTOR and pmTOR", "test": "Western blot of mTOR and pmTOR in cytoplasmic and nuclear fractions of colon, breast and lung cancer cells", "format": "cell-based, human", "conditions": "breast, lung cancer cells", "from_the_text": "as §1, §2, §3"}, "mTOR and pmTOR [4]": {"tested_on": "mTOR and pmTOR", "test": "Western blot of mTOR and pmTOR in cytoplasmic and nuclear fractions of prostate cancer cell lines", "format": "cell-based, human", "from_the_text": "as §1, §2\nThe total proteins were extracted using M-PER extraction reagent with protease and phosphatase inhibitor cocktail (Thermo Fisher Scientific) according to manufacturer's protocol. Cytoplasm and nuclear proteins were extracted using Subcellular Protein Fractionation kit (Thermo Fisher Scientific) according to the manufacturer's protocol. Equal amounts of proteins were used based on the quantification using BCA assay kit (Thermo Fisher Scientific), and the samples were separated by electrophoresis using NuPAGE 4-12% or 8% Bis-Tris gels (Invitrogen). The gels were transferred to PVDF membranes (Bio-Rad) then the PVDF membranes were incubated with SuperBlock blocking buffer (Thermo Fisher Scientific). After 1 h, the PVDF membranes were incubated with primary antibodies overnight at 4° C., washed 3 times with 1×TBST, and then incubated with secondary antibody for 1 h at room temperature, then washed 5 times with 1×TBST. The results were analyzed with SuperSignal ECL substrates (Thermo Fisher Scientific) and a ChemiDoc XRS system (Bio-Rad). The primary and secondary antibodies used in the study were mTOR, pmTOR, AR, GAPDH, Lamin B1, β-actin, and anti-rabbit IgG-HRP antibodies from Cell Signaling Technology."}, "[5]": {"conditions": "22Rv1, LNCaP, PC-3, RC77 T/E, MDA PCa 2b, 48 h following transfection"}, "[6]": {"conditions": "all European American and African American prostate cancer cell lines"}, "[7]": {"conditions": "all European American and African American prostate cancer cell lines, 48 h transfection, vs NS"}, "[8]": {"conditions": "metastatic prostate cancer cell line MDA PCa 2b"}}}
{"substance": "miR-99b-5p mimic: miRNA mimic of miR-99b-5p (SEQ ID NO: 2, CACCCGUAGAACCGACCUUGCG), purchased from Ambion (listed as RNA, chemistry not given here; listed as Homo sapiens)", "values": [{"measurement": "pmTOR signals (immunofluorescence)", "setting": "mTOR and pmTOR [1]; [5]", "value": "generalized reduction"}, {"measurement": "total mTOR signals (immunofluorescence)", "setting": "mTOR and pmTOR [1]; [5]", "value": "generalized reduction"}, {"measurement": "cytoplasmic pmTOR signals (immunofluorescence quantification)", "setting": "mTOR and pmTOR [1]; [6]", "value": "increased"}, {"measurement": "nuclear pmTOR signals (immunofluorescence quantification)", "setting": "mTOR and pmTOR [1]; [6]", "value": "reduced significantly"}, {"measurement": "cytoplasmic AR (Western blot)", "setting": "AR; 22Rv1 and MDA PCa 2b cells", "value": "slight to moderate decrease"}, {"measurement": "AR expression levels, total lysates (Western blot)", "setting": "AR; MCF-7, 22Rv1, MDA PCa 2b, mimic vs NS", "value": "significantly reduced"}, {"measurement": "nuclear AR protein levels (Western blot)", "setting": "AR; MCF-7, 22Rv1, and MDA PCa 2b cells", "value": "significantly decreased"}, {"measurement": "cytoplasmic AR (Western blot)", "setting": "AR; MCF-7 cells", "value": "no change"}, {"measurement": "cell apoptosis (caspase 3/7 activity) in the presence of docetaxel", "setting": "[2]; HT-29, SW620, MCF-7, A549, H1299, 11 mM of docetaxel, 24 h", "value": "moderate to significant cell apoptosis"}, {"measurement": "apoptosis (caspase 3/7 activity), single agent", "setting": "[2]; colon, breast, lung cancer cells, without docetaxel (vehicle)", "value": "not sufficient to initiate significant apoptosis"}, {"measurement": "nuclear mTOR expression (Western blot)", "setting": "mTOR and pmTOR [3]; miR-99b-5p vs NS transfected", "value": "significant decrease"}, {"measurement": "nuclear pmTOR expression (Western blot)", "setting": "mTOR and pmTOR [3]; miR-99b-5p vs NS transfected", "value": "significant decrease"}, {"measurement": "total mTOR (combined cytoplasmic and nuclear mTOR, Western blot)", "setting": "mTOR and pmTOR [3]; miR-99b-5p vs NS transfected", "value": "generalized reduction"}, {"measurement": "cytoplasmic mTOR (Western blot)", "setting": "mTOR and pmTOR [3]; upon miR-99b-5p transfection", "value": "slight to no decrease"}, {"measurement": "mTOR in nuclear fractions (Western blot)", "setting": "mTOR and pmTOR [4]; [7]", "value": "moderate to significant reduction"}, {"measurement": "pmTOR in nuclear fractions (Western blot)", "setting": "mTOR and pmTOR [4]; [7]", "value": "moderate to significant reduction"}, {"measurement": "cytoplasmic mTOR (Western blot)", "setting": "mTOR and pmTOR [4]; all the prostate cancer cell lines, vs NS", "value": "slight to no reduction"}, {"measurement": "nuclear mTOR (Western blot)", "setting": "mTOR and pmTOR [4]; [8]", "value": "significant decrease"}, {"measurement": "nuclear pmTOR (Western blot)", "setting": "mTOR and pmTOR [4]; [8]", "value": "significant decrease"}]}
